# Legend:
# iPSC-CM = experiment: AFM measurement of beat force and beat rate of solitary iPSC-derived cardiomyocytes; type: cell-based, human
# Source text: (§1) In step 1441, the nanoscale tip of the microscale cantilever of the AFM is controlled to apply gentle pressure to a location on the cardiomyocyte. […] In experimental embodiments described in more detail below, one or more cardiomyocytes were gently contacted by the cantilever tip with 100 pN of force, producing a typical cellular indentation of about 200 nm to about 500 nm. In various embodiments the contact force falls in a range from about 0.05 to about 1 nN. Thus, in some embodiments, a method includes operating a controller for the microscale cantilever to cause the nanoscale tip to contact the cardiomyocyte at a predetermined pressure.
# (§2) In step 1443, the indentation is measured and the vertical deflection feedback is turned off to allow the cantilever to move with the contractions of the beating cardiomyocyte. […]
# (§3) In step 1445, the time history of vertical deflection of the cantilever at the location on the cell is measured and recorded. FIG. 15 is a graph 1500 that illustrates an example measured force time series when the AFM cantilever interacts with the living cardiomyocyte, according to an embodiment. […]
# (§4) In step 1447, beat characteristics of the cell are determined. For example, the beat force, duration (width) and rate (frequency) are determined based on the time history of vertical deflection in trace 1510. […]
# hESC-CM = experiment: AFM measurement of beat force and beat rate of solitary hESC-derived cardiomyocytes; type: cell-based, human
# Source text: as §1, §2, §3, §4
smiles,measurement,setting,value
"NC[C@H](O)c1ccc(O)c(O)c1 [norepinephrine, 4-[(1R)-2-amino-1-hydroxyethyl]benzene-1,2-diol]",beats faster than a cutoff of 1.7 beats/s,"iPSC-CM; iPSC-CM after applying NE 100 μmol/L, 6% prior to treatment",21%
same,contraction force (beat force) after treatment,"iPSC-CM; solitary iPSC-CM, norepinephrine 100 μmol/L, immediately following treatment, before treatment 0.18±0.06 nN, p<0.001",0.48±0.23 nN
same,effect on the beat rate,hESC-CM; hESC-CM after treatment with norepinephrine 100 μmol/L,minimal effect
same,contraction force (beat force) after treatment,"hESC-CM; solitary hESC-CM, norepinephrine 100 μmol/L, immediately following treatment, before treatment 0.097±0.019 nN, p<0.001",0.31±0.03 nN

# — US8495760B2, “Atomic force microscope manipulation of living cells” (The Board of Trustees of the Leland Stanford Junior …, priority 2010, dated 2013)
